# Measurements from PubChem BioAssay AID493002 (Sanford-Burnham Center for Chemical Genomics, 2010).
# Tested on: S. cerevisiae tim23-1 mutant growth, luminescence
# Assay: potency against tim23-1 yeast growth – luminescence, uHTS hits, dose response (AID 493002);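 also: yeast grown roughly 22 hours at 25 °C before the luminescence read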
row,SMILES,IC50 [µM]
1,COc1ccc(S(=O)(=O)CC(=O)c2cc3cccc(C)c3oc2=O)cc1,13
2,Cc1nc2ccccc2c(=O)n1/N=C/c1cc(Br)ccc1O,6.9
3,N=c1c2c(-c3ccccc3)c(-c3ccccc3)n(Cc3ccco3)c2ncn1Cc1ccco1,9.92
4,COc1ccc2oc(/C=C/N(C)C)c(C(=O)c3ccc(Cl)cc3)c2c1,15
5,O=C(Nc1ccc2nc(-c3ccc(Br)o3)[nH]c2c1)c1ccco1,5.88
6,O=C(NCc1ccc2c(c1)OCO2)c1c(O)nc2sccn2c1=O,6.15
7,O=C(Nc1ccc2c(c1)OCCO2)c1cccc(Br)c1,14.5
8,CCCCc1cc(O)c(CCCC)c(O)c1,3.69
9,O=C(Nc1ccccc1N(C(=O)c1ccco1)S(=O)(=O)c1cccs1)c1ccco1,9.78
10,CCCCCCSC1=C(C#N)C(c2ccccc2)CC(=O)N1 (configuration not stated),13.4
11,COC(=O)c1cccc(-c2ccc(C(c3c(C)[nH][nH]c3=O)c3c(C)[nH][nH]c3=O)o2)c1,15.1
12,O=C(Nc1ccc2oc(Cc3ccc(Cl)cc3)nc2c1)c1cccnc1,14.2
13,CC(C)n1ncc2c(C(=O)NCC(=O)Nc3ccccc3Br)cc(C3CC3)nc21,16
14,O=C(Nc1oc2ccc(Cl)cc2c(=O)c1-c1ccc(F)cc1)c1ccco1,17.1
15,Cc1ccnc(NC(=O)c2ccc3c(c2)C(=O)N(CC(C)C)C3=O)c1,13
16,O=C(Nc1ccc(-c2cn3c(n2)SCC3)cc1)c1ccco1,8.88
17,COc1cccc2sc3cc(NCc4ccc5c(c4)OCO5)ccc3c(=O)c12,12.3
18,O=C(/C=C/c1ccccc1)Nc1ccc2c(c1)OCCO2,11.7
19,O=C(CC(=O)c1c(F)cccc1Cl)c1ccccc1O,15.7
20,O=C(COc1ccccc1)N/N=C/c1ccc([N+](=O)[O-])o1,6.56
21,Cc1ccccc1C(=O)Oc1cccc2c(O)cccc12,8.53
22,CN=c1scc(-c2cccs2)n1/N=C/c1ccc(O)c(O)c1O,10.5

row,SMILES,IC50 [µM]
1,Cc1cccc(C(=O)OCC(=O)NC23CC4CC(CC(C4)C2)C3)c1O,12.5
2,CC1CCN(c2nnc(N3CCC(C)CC3)c3ccccc23)CC1,34.9
3,CC(C)Cn1cnc2c(c(-c3ccccc3)c(-c3ccccc3)n2Cc2ccco2)c1=N,9.48
4,NC(=O)c1c(NC(=O)c2ccccc2F)sc2c1CCCC2,38.3
5,N#C/C(N)=C(/C#N)N=Cc1cccc(Cl)c1,8.99
6,CCC(C)C(=O)Nc1nc2ccc(OC)cc2s1 (configuration not stated),18.1
7,CCOC(=O)c1c(NC(=O)CSc2nnnn2-c2ccc(OC)cc2)sc(C)c1C,4.12
8,O=C(Nc1cccc(NC(=O)c2cccs2)c1)c1ccc(Br)o1,9.28
9,CC1(C)CC(n2c(NCCO)nc3c(c2=O)C2(CCCC2)Cc2ccccc2-3)CCO1 (configuration not stated),8.62
10,Cc1ccc2nc(N3C(=O)CNC3=S)sc2c1,3.73
11,CC1(S(=O)(=O)O)CC(=O)c2ccccc2C1=O (configuration not stated),6.57
12,Cc1[nH][nH]c(=O)c1C(c1ccc(-c2ccc(Cl)c(Cl)c2)o1)c1c(C)[nH][nH]c1=O,14
13,Nc1nc2c(s1)CCc1c-2cnn1-c1ccccc1,12.4
14,O=C(c1cc(-c2ccc(O)cc2)on1)N1CCc2ccccc2C1,8.85
15,Nc1cc([N+](=O)[O-])cc2oc(-c3ccccc3)cc12,13.1
16,O=C(NCCCc1ccccc1)c1c(O)nc2sccn2c1=O,4.63
17,O=S(=O)(Nc1cccc(-c2nc3cccnc3s2)c1)c1ccc2c(c1)OCCO2,11.6
18,c1ccc(N=Nc2cn[nH]c2-c2ccco2)cc1,11.3
19,O=[N+]([O-])c1ccccc1S(=O)(=O)Nc1cccc2cccnc12,7.7
20,OCCOCCNc1ncnc2c1c(-c1ccccc1)cn2-c1ccccc1,10.7
21,Cc1ccc(S(=O)(=O)N2C(=O)[C@@H]3Cc4ccccc4CN3C2=O)cc1,30.5
22,Nc1ccc2nc(SCc3cccc(F)c3)sc2c1,13.9

row,SMILES,IC50 [µM]
1,CCOC(=O)/C(=C/c1ccc(OC(=O)c2ccncc2)cc1)C(C)=O,11
2,O=C(Oc1cccc2c(O)cccc12)c1ccccc1,8.69
3,COc1ccc(C2=NNC(c3cccs3)=Nc3ccc(OC)cc32)cc1,11.1
4,CCCCn1c(N)c(N(CCC(C)C)C(=O)c2ccc3c(c2)OCO3)c(=O)[nH]c1=O,11.1
5,O=C(Nc1ccc2oc(-c3ccccc3)nc2c1)c1cccs1,0.39
6,C(=C\c1ccccc1)/C=N/Nc1nc2ccccc2[nH]1,8.63
7,COc1cc(C(=O)N/N=C/c2coc3ccc(Cl)cc3c2=O)ccc1O,4.34
8,C=C1CCc2c([nH]c3ccc(OCC(C)C)cc23)C1=O,3.33
9,Cn1cc(C(=O)c2ccc(Cl)cc2)cc1-c1nc2ccccc2n1C,12.3
10,Nc1ccc(/C=C/C(=O)c2cccs2)cc1,4.31
11,COCCNC(=O)/C(C#N)=C/c1ccc(OCc2ccccc2)cc1,9.3
12,CCOC(=O)c1c(C=O)c2sc(C)cc2n1C,18
13,Cc1ccc(Nc2nc(Cl)nc(NC(C)(C)C)n2)cc1,16
14,O=C(c1ccccc1)N1N=C(c2cccs2)CC1c1ccccc1O (configuration not stated),22.8
15,CCOC(=O)c1c(N)sc(C(=O)Nc2ccccc2)c1C,4.11
16,c1ccc(-c2cc3cc4c(cc3cn2)OCO4)cc1,17
17,CCN(CC)c1ccc(/C=N/NC(=O)c2ccc3c(c2)OCCO3)cc1,11.3
18,O=C(Nc1cc(-c2ccccc2)[nH]n1)c1ccccc1,4.2
19,CC(C)c1nc(NCCO)c(C#N)c2c1CCCC2,12.4
20,COc1ccc2c(c1)OC[C@H]1[C@H]2N2C(=O)c3cc(C)ccc3NC(=O)[C@@]2(C)[C@H]1c1ccccc1,13.1
21,O=C(Nc1ccn(Cc2ccc(Cl)cc2)n1)c1ccc2c(c1)OCO2,11.1
22,O=C(NC1CCCCC1)c1c(O)nc2sccn2c1=O,16.4

row,SMILES,IC50 [µM]
1,CCCc1nc2c(c(=O)c3ccccc3n2C)c(=O)n1C1CCCCCC1,9.44
2,Oc1c(Cl)cc(Cl)cc1CNc1nccs1,15.3
3,Cc1ccc(/C=N/NC(=O)c2csc3c2CCCC3)cc1,15.1
4,Cc1ccc(S(=O)(=O)n2ccc(OC(=O)c3cccs3)n2)cc1,8.39
5,Cc1cc(=O)oc2c1c(C(F)(F)F)nn2-c1ccccc1,7.85
6,O=C(Nc1ccc(-c2nc3ccccc3[nH]2)cc1)C1CCCO1 (configuration not stated),14.4
7,Oc1ccccc1-c1cc(-c2ccc(F)cc2)n[nH]1,13.5
8,O=C(N/N=C/c1ccc(Br)s1)c1c[nH]c2ccccc12,14.9
9,Cc1[nH][nH]c(=O)c1C(c1ccc(-c2ccc(F)cc2)o1)c1c(C)[nH][nH]c1=O,7.74
10,COc1ccc(/C=C/C(=O)Nc2ccc3c(c2)CCC3)cc1OC,8.81
11,Cc1ccc(Nc2nc(-c3cccnc3)nc3ccccc23)cc1,5.21
12,Brc1ccc(OCc2nnnn2-c2ccccc2)cc1,11.3
13,Cc1ccc(S(=O)(=O)N[C@@H](Cc2ccccc2)C(=O)CCl)cc1,2.18
14,CC(C(Sc1ccccc1N)c1ccccc1)[N+](=O)[O-] (configuration not stated),3.92
15,N#C/C(=C/c1ccc(N2CCOCC2)o1)c1nc2ccccc2[nH]1,7.2
16,Cn1c(C(=O)Nc2ccc3c(c2)OCCO3)cc2sccc21,12.1
17,CCCCC(=O)NC(c1ccc(Cl)cc1)c1ccc2cccnc2c1O (configuration not stated),9.68
18,CCOC(=O)c1sc(=NC(=O)c2ccco2)n(C)c1C,14.1
19,Cc1nc2scc(C)n2c(=O)c1S(=O)(=O)Nc1ccc(N2CCOCC2)cc1,6.67
20,COc1cccc(C2=NN(C(=O)c3ccco3)C(c3ccco3)C2)c1 (configuration not stated),20.4
21,Oc1ccc(Oc2ccc(Oc3ccc(O)cc3)cc2)cc1,6.42
